Test results reported in ChEMBL document CHEMBL5584307, “Discovery of a Potent and Orally Bioavailable Xanthine Oxidase/Urate Transporter 1 Dual Inhibitor as a Potential Treatment for Hyperuricemia and Gout” (J Med Chem, 2024).
pIC50: −log10 of the molar value.

What was measured:
[1] = Cmax in overnight-fasted Sprague-Dawley rat at 5 mg/kg, po measured upto 24 hrs by LC-MS/MS analysis; assay type: ADME, organism-based; conditions: in vivo
[2] = Stability in rat liver microsomes assessed as half life at 1 uM measured upto 60 mins in presence of NADPH by LC-MS/MS analysis; assay type: ADME, Microsome
[3] = AUC (last) in Tufted capuchin monkey at 10 mg/kg, po measured for 24 hrs by LC-MS/MS analysis; assay type: ADME, organism-based; conditions: sapajus apella, in vivo
[4] = Oral bioavailability in overnight-fasted Sprague-Dawley rat at 5 mg/kg measured upto 24 hrs by LC-MS/MS analysis; assay type: ADME, organism-based; conditions: in vivo
Sapajus apella [5] = assay: Urate lowering effect in Tufted capuchin monkey assessed as urine xanthine level at 30 mg/kg/day, po qd for 3 days consecutively; assay type: functional; conditions: time 3 day
[6] = Toxicity in monkey; set-up: species or system Macaca mulatta; conditions: rhesus monkey, in vivo
[7] = Toxicity in rat assessed as acute inflammation in pylorus at 120 mg/kg/day for 28 days by H and E staining based analysis; assay type: organism-based; conditions: in vivo, 672 h, time 28 day
[8] = AUC (last) in Beagle dog at 5 mg/kg, po measured upto 24 hrs by LC-MS/MS analysis; assay type: ADME, organism-based, Canis lupus familiaris; conditions: in vivo
[9] = Stability in human liver microsomes assessed as half life at 1 uM measured upto 60 mins in presence of NADPH by LC-MS/MS analysis; assay type: ADME, Microsome
Cytochrome P450 1A2 = molecular target: T1, Cytochrome P450 1A2 (Homo sapiens, UniProt P05177); assay: Induction of CYP1A2 in human hepatocytes at 50 uM incubated for 48 hrs with media containing compound renewal every 24 hrs followed by substrate addition measured after 30 mins by LC-MS/MS analysis; assay type: ADME, cell-based, Hepatocyte; conditions: 48.5 h
T1 sequence (P05177 whole entry): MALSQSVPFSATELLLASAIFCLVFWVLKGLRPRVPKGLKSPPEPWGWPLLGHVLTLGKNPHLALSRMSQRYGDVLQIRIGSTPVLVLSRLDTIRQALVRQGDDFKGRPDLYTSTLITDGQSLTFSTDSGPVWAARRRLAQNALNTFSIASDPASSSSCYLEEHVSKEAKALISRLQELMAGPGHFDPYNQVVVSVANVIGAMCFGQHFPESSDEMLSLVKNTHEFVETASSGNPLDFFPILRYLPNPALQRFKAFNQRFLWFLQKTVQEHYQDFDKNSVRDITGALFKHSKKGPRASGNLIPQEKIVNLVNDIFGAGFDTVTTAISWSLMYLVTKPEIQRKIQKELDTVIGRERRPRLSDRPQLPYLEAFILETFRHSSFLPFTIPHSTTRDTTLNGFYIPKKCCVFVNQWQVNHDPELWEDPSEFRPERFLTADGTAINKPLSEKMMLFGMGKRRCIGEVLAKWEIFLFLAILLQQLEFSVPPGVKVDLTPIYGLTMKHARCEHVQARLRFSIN

[10] = Toxicity in cynomolgous monkey assessed as increase in vomiting at 90 to 200 mg/kg/day for 28 days consecutively; assay type: organism-based, Macaca fascicularis; conditions: cynomolgus monkey, in vivo, 672 h; dose 90-200 mg/kg/day, time 28 day
[11] = Cmax in Cynomolgous monkey at 5 mg/kg, po measured upto 24 hrs by LC-MS/MS analysis; assay type: ADME, organism-based, Macaca fascicularis; conditions: cynomolgus monkey, in vivo
[12] = Genotoxicity in Salmonella typhimurium TA1535 by Ames test; assay type: toxicity; conditions: salmonella enterica subsp. enterica serovar typhimurium
[13] = Tmax in Tufted capuchin monkey at 30 mg/kg, po measured for 24 hrs by LC-MS/MS analysis; assay type: ADME, organism-based; conditions: sapajus apella, in vivo
[14] = Toxicity in rat assessed as decrease in food consumption at 60 to 120 mg/kg/day for 28 days; assay type: organism-based; conditions: in vivo, 672 h, dose 60-120 mg/kg/day, time 28 day
[15] = Toxicity in cynomolgous monkey assessed as flatus in intestines at 200 mg/kg/day for 28 days consecutively; assay type: organism-based, Macaca fascicularis; conditions: cynomolgus monkey, in vivo, 672 h, time 28 day
Cytochrome P450 2D6 = Cytochrome P450 2D6 (Homo sapiens, UniProt P10635); assay: Inhibition of CYP2D6 in human liver microsomes in presence of NADPH by LC-MS/MS analysis; assay type: ADME, Microsome
Chain of Cytochrome P450 2D6 (P10635 whole entry): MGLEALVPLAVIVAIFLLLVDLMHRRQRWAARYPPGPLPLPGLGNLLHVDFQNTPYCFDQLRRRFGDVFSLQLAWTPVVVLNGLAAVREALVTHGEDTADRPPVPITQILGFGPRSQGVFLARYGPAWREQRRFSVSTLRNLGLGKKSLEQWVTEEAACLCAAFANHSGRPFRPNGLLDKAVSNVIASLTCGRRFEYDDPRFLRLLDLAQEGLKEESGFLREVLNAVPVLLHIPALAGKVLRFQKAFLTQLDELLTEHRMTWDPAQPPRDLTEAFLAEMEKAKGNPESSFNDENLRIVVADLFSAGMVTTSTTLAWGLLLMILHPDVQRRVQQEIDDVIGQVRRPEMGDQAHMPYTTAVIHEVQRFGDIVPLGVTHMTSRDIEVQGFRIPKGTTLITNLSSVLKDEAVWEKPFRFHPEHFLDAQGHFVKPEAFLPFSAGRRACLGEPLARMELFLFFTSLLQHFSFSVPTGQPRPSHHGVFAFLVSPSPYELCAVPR

[16] = Toxicity in Sprague-Dawley rat assessed as development-limiting effect; conditions: in vivo
[17] = Inhibition of SLC (unknown origin); set-up: species or system Homo sapiens
[18] = Toxicity in rat; conditions: in vivo
Cytochrome P450 2B6 = molecular target: T2, Cytochrome P450 2B6 (Homo sapiens, UniProt P20813); assay: Induction of CYP2B6 in human hepatocytes at 50 uM incubated for 48 hrs with media containing compound renewal every 24 hrs followed by substrate addition measured after 30 mins by LC-MS/MS analysis; assay type: ADME, cell-based, Hepatocyte; conditions: 48.5 h
T2 sequence (P20813 whole entry): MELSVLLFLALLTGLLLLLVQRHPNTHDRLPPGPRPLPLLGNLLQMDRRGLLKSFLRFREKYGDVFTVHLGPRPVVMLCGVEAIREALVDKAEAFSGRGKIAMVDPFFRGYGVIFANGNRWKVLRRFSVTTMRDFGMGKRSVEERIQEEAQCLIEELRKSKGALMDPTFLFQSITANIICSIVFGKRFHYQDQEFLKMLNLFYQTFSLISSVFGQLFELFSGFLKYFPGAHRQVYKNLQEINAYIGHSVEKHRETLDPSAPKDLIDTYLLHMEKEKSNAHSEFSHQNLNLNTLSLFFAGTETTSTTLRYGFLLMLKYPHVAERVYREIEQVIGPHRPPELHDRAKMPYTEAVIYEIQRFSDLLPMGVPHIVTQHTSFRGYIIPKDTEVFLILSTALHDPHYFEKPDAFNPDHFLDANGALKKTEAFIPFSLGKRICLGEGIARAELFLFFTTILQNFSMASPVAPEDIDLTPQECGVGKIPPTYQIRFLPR

[19] = Volume of distribution at steady state in overnight-fasted Sprague-Dawley rat at 5 mg/kg, po or 1 mg/kg, iv measured upto 24 hrs by LC-MS/MS analysis; assay type: ADME, organism-based; conditions: in vivo
[20] = Genotoxicity in Salmonella typhimurium TA100 by Ames test; assay type: toxicity; conditions: salmonella enterica subsp. enterica serovar typhimurium
Sapajus apella [21] = assay: Urate lowering effect in Tufted capuchin monkey assessed as fraction excretion of uric acid at 100 mg/kg/day, po qd for 3 days consecutively relative to control; assay type: functional; conditions: time 3 day
[22] = Toxicity in rat assessed as increase in CHOL level at 120 mg/kg/day for 28 days; assay type: organism-based; conditions: in vivo, 672 h, time 28 day
[23] = Cmax in Tufted capuchin monkey at 30 mg/kg, po measured for 24 hrs by LC-MS/MS analysis; assay type: ADME, organism-based; conditions: sapajus apella, in vivo
Sapajus apella [24] = conditions: dose 100.0 mg/kg/day, route po, time 3.0 day
[25] = Stability in dog liver microsomes assessed as half life at 1 uM measured upto 60 mins in presence of NADPH by LC-MS/MS analysis; assay type: ADME, Canis lupus familiaris, Microsome
Cytochrome P450 3A4 = Cytochrome P450 3A4 (Homo sapiens, UniProt P08684); assay: Induction of CYP3A4 in human hepatocytes at 50 uM incubated for 48 hrs with media containing compound renewal every 24 hrs followed by substrate addition measured after 30 mins by LC-MS/MS analysis; assay type: ADME, cell-based, Hepatocyte; conditions: 48.5 h
Chain of Cytochrome P450 3A4 (P08684 whole entry): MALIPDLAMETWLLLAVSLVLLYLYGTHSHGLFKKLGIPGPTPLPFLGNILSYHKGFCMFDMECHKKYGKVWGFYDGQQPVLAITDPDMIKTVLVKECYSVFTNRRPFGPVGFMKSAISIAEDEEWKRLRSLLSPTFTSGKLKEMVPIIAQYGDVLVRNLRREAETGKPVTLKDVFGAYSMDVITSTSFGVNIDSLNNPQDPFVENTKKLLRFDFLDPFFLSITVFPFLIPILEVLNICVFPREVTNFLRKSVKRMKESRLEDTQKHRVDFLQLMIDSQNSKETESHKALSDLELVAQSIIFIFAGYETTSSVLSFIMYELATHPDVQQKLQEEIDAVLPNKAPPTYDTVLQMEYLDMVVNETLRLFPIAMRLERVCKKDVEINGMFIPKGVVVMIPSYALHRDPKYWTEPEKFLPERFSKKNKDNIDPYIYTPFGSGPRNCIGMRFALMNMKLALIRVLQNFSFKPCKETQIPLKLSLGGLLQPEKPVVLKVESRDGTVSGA

[26] = AUC (0 to t) in male rat at 60 mg/kg/day for 28 days; assay type: ADME, organism-based; conditions: in vivo, time 28 day
[27] = AUC (0 to t) in female rat at 60 mg/kg/day for 28 days; assay type: ADME, organism-based; conditions: in vivo, time 28 day

## N#Cc1cc(-c2ccc(C(=O)O)c(O)c2)c2oc(F)cc2c1
[1]
  Cmax: 17200 ng/mL
[2]
  half-life at 1 µM: 3.38 h
[3]
  AUC(0-t) at 24 h: 4.34 µg·h/mL
[4]
  bioavailability: 145%
Sapajus apella [5]
  Activity: 29.26 µg·h/mL
[6]
  MTD: 1000 mg/kg
[7]
  Activity: Toxic
[8]
  AUC(0-t) at 24 h: 11.5 µg·h/mL
[9]
  half-life at 1 µM: 3.75 h
Cytochrome P450 1A2
  Activity: < 20%
[10]
  Activity: Toxic
[11]
  Cmax: 3360 ng/mL
[12]
  Activity: Non-Toxic
[13]
  Tmax: 0.8 h
[14]
  Activity: Toxic
[15]
  Activity: Toxic
Cytochrome P450 2D6
  pIC50: < 4.30
[16]
  Activity: Non-Toxic
[17]
  pIC50: < 6.20
[18]
  MTD: 450 mg/kg
Cytochrome P450 2B6
  Activity: < 20%
[19]
  Vdss: 0.31 L/kg
[20]
  Activity: Non-Toxic
Sapajus apella [21]
  Activity: 23.55%
[22]
  Activity: Toxic
[23]
  Cmax: 16700 ng/mL
Sapajus apella [24]
  AUC: 357000 ng·h/mL
[25]
  half-life at 1 µM: 21.1 h
Cytochrome P450 3A4
  Activity: < 20%
[26]
  AUC(0-t) at 672 h: 2250 µg·h/mL
[27]
  AUC(0-t) at 672 h: 2390 µg·h/mL
